From patent publication US20210220291A1, “THERAPEUTIC COMPOSITIONS AND METHODS FOR PULMONARY FIBROSIS” (priority 2020, published 2021) come the findings set out here.

Type in all cases: in vivo, wistar rats
One assay deals with HIF-1α. The experiment in a line: Bleomycin induced lung fibrosis in rats: HIF-1 alpha in lung tissue homogenate. As to conditions: 14 days; for reduction in HIF-α levels: compared to pulmonary fibrosis control group (138.6 pg/ml); for reduction in HIF-α levels / HIF-α levels: iso-garcinol 10 mg/kg, octahydrocurcumin 150 mg/kg bodyweight, individually and in combination; for HIF-α levels: control group 138.6 pg/ml. The protocol: (§1) After overnight fasting, the wistar rats were anesthetized (60 mg/kg ketamine HCl and 5 mg/kg xylazine) and a midline incision was made in the neck and the trachea was exposed. A tracheal cannula was inserted under direct visualization into the trachea. Pulmonary fibrosis was induced by intratracheal administration of single dose 0.1 mL of bleomycin (5 mg/kg in 0.9% NaCl). Treatment with the test material was given 5 min after administration of bleomycin for 14 consecutive days. After 14 days, BALF (bronchoalveolar lavage fluid) was obtained. Lung tissue was weighed to determine the lung index. Lung homogenate was stored at −80° C. for analysis of bio-markers. (Yildirim A, Ersoy Y, Ercan F et al., “Phosphodiesterase-5 inhibition by sildenafil citrate in a rat model of bleomycin-induced lung fibrosis,” Pulmonary Pharmacol Therap. […]; 23(3):215-221; Chen L, Wang T, Wang X et al., “Blockade of advanced glycation end product formation attenuates bleomycin-induced pulmonary fibrosis in rats,” Respiratory Res. 2009; 10:55; Nergiz et al., The Protective Effect of Naringin against Bleomycin-Induced Pulmonary Fibrosis in Wistar Rats. Pulmonary Med. 2016, 12 p, http://dx.doi.org/10.1155/2016/7601393)
(§2) The lung of the animals was removed and rinsed with ice-cold isotonic saline. To the tissues was added 4 ml/g tissue of extraction buffer containing 1 mM phenylmethylsulfonyl fluoride, 1 mg/ml aprotinin and 0.05% Tween 20 in phosphate buffered saline. Tissues were homogenized on ice with a polytron and the homogenate was centrifuged at 5000 g for 15 min. Aliquots of the supernatant were separated and used for biochemical analysis. Supernatants were stored at −80° C. until cytokine analysis (Pandey et al., Multifunctional neuroprotective effect of Withanone, a compound from Withania somnifera roots in alleviating cognitive dysfunction. Cytokine 102 (2018) 211-221). The levels of HIF-1 alpha, TGF-β, IL-13, IL-1β, TNF-α, CCL-17, osteopontin and mucin in the lung tissue homogenate was determined using methods and protocols already reported in scientific literature.
Different concentration of iso-garcinol (5, 10, 20 mg/kg bodyweight) and octahydrocurcumin were first administered to rats and the effect of the compounds in reducing hypoxia related HIF-α was evaluated. […] Thus, iso-garcinol at 10 mg/kg bodyweight and octahydrocurcumin at 150 mg/kg bodyweight was used for the further combination studies.

In another assay the test system is TGF-β. The experiment in a line: Bleomycin induced lung fibrosis in rats: TGF-β in lung tissue homogenate. The note with it: iso-garcinol 10 mg/kg, octahydrocurcumin 150 mg/kg bodyweight, individually and in combination, 14 days; for reduction in TGF-β levels: compared to pulmonary fibrosis control group (1721 pg/ml); for TGF-β levels: control group 1721 pg/ml. As for the experimental part:
as §1, §2

The test system of another assay is Collagen-I. The assay can be described thus: Bleomycin induced lung fibrosis in rats: collagen 1 levels. As to conditions: iso-garcinol 10 mg/kg p.o., octahydrocurcumin 150 mg/kg, alone and combined; normal control 64.25 ± 4.98, fibrosis control 102.43 ± 3.70. As for the experimental part: (§3) After overnight fasting, the wistar rats were anesthetized (60 mg/kg ketamine HCl and 5 mg/kg xylazine) and a midline incision was made in the neck and the trachea was exposed. A tracheal cannula was inserted under direct visualization into the trachea. Pulmonary fibrosis was induced by intratracheal administration of single dose 0.1 mL of bleomycin (5 mg/kg in 0.9% NaCl). Treatment with the test material was given 5 min after administration of bleomycin for 14 consecutive days. After 14 days, BALF (bronchoalveolar lavage fluid) was obtained. Lung tissue was weighed to determine the lung index. Lung homogenate was stored at −80° C. for analysis of bio-markers. […]
(§4) The lung of the animals was removed and rinsed with ice-cold isotonic saline. […] The levels of HIF-1 alpha, TGF-β, IL-13, IL-1β, TNF-α, CCL-17, osteopontin and mucin in the lung tissue homogenate was determined using methods and protocols already reported in scientific literature.

Another assay deals with IL-13. The experiment in a line: Bleomycin induced lung fibrosis in rats: IL-13 in lung tissue homogenate. As to conditions: iso-garcinol 10 mg/kg, octahydrocurcumin 150 mg/kg bodyweight, individually and in combination, vs pulmonary fibrosis control (FIG. 4). As for the experimental part:
as §3, §4

A further assay relates to TNF-α. The assay can be described thus: Bleomycin induced lung fibrosis in rats: TNF-α in lung tissue homogenate. As to conditions: iso-garcinol 10 mg/kg, octahydrocurcumin 150 mg/kg bodyweight, individually and in combination, vs pulmonary fibrosis control (FIG. 5). The protocol: as §3, §4
The next assay has as its system IL-1β. The experiment in a line: Bleomycin induced lung fibrosis in rats: IL-1β in lung tissue homogenate. As to conditions: iso-garcinol 10 mg/kg, octahydrocurcumin 150 mg/kg bodyweight, individually and in combination, vs pulmonary fibrosis control (FIG. 5). As for the experimental part:
as §3, §4

Another assay relates to CCL-17. The experiment in a line: Bleomycin induced lung fibrosis in rats: CCL-17 in lung tissue homogenate. As to conditions: iso-garcinol 10 mg/kg, octahydrocurcumin 150 mg/kg bodyweight, individually and in combination, vs pulmonary fibrosis control (FIG. 6). As for the experimental part: as §3, §4
Another assay relates to osteopontin. The assay can be described thus: Bleomycin induced lung fibrosis in rats: osteopontin in lung tissue homogenate. The note with it: iso-garcinol 10 mg/kg, octahydrocurcumin 150 mg/kg bodyweight, individually and in combination, vs pulmonary fibrosis control (FIG. 7). The protocol: as §3, §4
A further assay deals with MUC 5B. The experiment in a line: Bleomycin induced lung fibrosis in rats: mucin 5B in lung tissue homogenate. As to conditions: iso-garcinol 10 mg/kg, octahydrocurcumin 150 mg/kg bodyweight, individually and in combination, vs pulmonary fibrosis control (FIG. 8). The protocol: as §3, §4
The nature of assay [1]: Bleomycin induced lung fibrosis in rats: lung index. As to conditions: (weight of the lung/bodyweight)×100; iso-garcinol 10 mg/kg p.o., octahydrocurcumin 150 mg/kg, alone and combined; normal control 0.75 ± 0.053, fibrosis control 1.39 ± 0.034. As for the experimental part: as §1
Lung index calculated using the below formula
Lung Index=(weight of the lung/bodyweight)×100

The structures appear in SMILES notation.

Turning to `CC(C)=CC[C@H]1C[C@@]23C[C@@H](CC=C(C)C)C(C)(C)[C@@](CC=C(C)C)(C(=O)C(C(=O)c4ccc(O)c(O)c4)=C2OC1(C)C)C3=O` [iso-garcinol], in the assay with HIF-1α (bleomycin rats, iso-garcinol 5, 10, 20 mg/kg bodyweight and different doses of octahydrocurcumin (FIG. 1)), the “reduction of hypoxia related HIF-α (determination of effective dose)” value is reported as “better reduction of HIF-α at 10 mg/kg bodyweight”. In addition, in the assay with HIF-1α, the “reduction in HIF-α levels” value was found to be 55% and the HIF-α levels came out at 61.9 pg/mL. Besides, in the assay on TGF-β, the “reduction in TGF-β levels” value is given as 42.62% and the TGF-β levels was determined as 987.5 pg/mL. For the same compound, in the assay on Collagen-I, the Collagen-I is 89.68 ± 3.23 µg/mL. Also, the IL-13 levels entry in the assay on IL-13 is listed as “significantly reduced”. Moreover, in the assay with TNF-α, the TNF-α levels result is “significantly reduced”. Also, the IL-1β levels result in the assay on IL-1β is “significantly reduced”. Also, in the assay on CCL-17, the CCL-17 levels result is given as “reduced”. Besides, in the assay on osteopontin, the osteopontin levels entry is “reduced”. Further, the “MUC 5B levels” value in the assay on MUC 5B is on record as “reduced”. In addition, the Lung index in assay [1] is listed as 1.19 ± 0.035.

As for `COc1cc(CCC(O)CC(O)CCc2ccc(O)c(OC)c2)ccc1O` (stereo not shown) [octahydrocurcumin], in the assay on HIF-1α, the “reduction in HIF-α levels” value is on record as 36.6% and the HIF-α levels was found to be 83.7 pg/mL. In addition, in the assay on TGF-β, the “reduction in TGF-β levels” value was determined as 28.62% and the TGF-β levels came to 1228.4 pg/mL. In the assay with Collagen-I, the Collagen-I came to 95.56 ± 4.90 µg/mL. Further, the Lung index in assay [1] is listed as 1.02 ± 0.045.
